From article PMC8410599, “The structural basis of odorant recognition in insect olfactory receptors” (Nature, 2021)
Like-named read-outs stand apart in the source and are kept apart here.

What was measured:
Orco [1] = molecular target: T1, Orco (Apocrypta bakeri, UniProt B0FAQ4); test: cell-based; parameters: species or system HEK293; GCaMP6s calcium fluorescence dose-response of olfactory receptor channel expressed in HEK293 cells
T1 construct: gene Or2; expressed in HEK293 cells with GCaMP6s; homotetramer
T1 sequence (B0FAQ4 1-474): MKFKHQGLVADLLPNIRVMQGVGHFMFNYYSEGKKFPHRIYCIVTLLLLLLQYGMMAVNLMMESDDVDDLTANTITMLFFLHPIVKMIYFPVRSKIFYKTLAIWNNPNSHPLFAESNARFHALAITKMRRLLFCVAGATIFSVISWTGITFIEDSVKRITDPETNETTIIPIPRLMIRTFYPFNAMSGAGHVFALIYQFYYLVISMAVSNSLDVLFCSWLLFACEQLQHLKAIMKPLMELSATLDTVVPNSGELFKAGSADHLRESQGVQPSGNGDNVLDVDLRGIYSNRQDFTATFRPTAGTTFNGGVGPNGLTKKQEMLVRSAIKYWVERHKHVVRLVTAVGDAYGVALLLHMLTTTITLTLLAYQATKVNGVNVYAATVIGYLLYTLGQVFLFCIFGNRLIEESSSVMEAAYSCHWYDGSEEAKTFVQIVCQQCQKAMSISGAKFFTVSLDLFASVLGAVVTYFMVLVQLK
Procedure: (§1) Seven ligand concentrations were used for each transfection condition in sequential dilutions of 3, alongside a control well of only reading buffer. Ligands were dissolved in DMSO to 150 mM, then diluted with reading buffer to a highest final-well concentration of 0.5 mM (DMSO never exceeded 0.5%). Water-soluble ligands (arabinose, caffeine, denatonium, glucose, MSG, sucrose) were dissolved directly into reading buffer. If experimental data indicated a more sensitive response than this range, the concentration was adjusted accordingly. Ligand concentrations for mutants were the same as for the corresponding wild-type OR. Each plate contained a negative control of GCaMP6s transfected alone and exposed to eugenol for MhOR5 and VUAA1 for Orco experiments. […] A control of DMSO alone was also tested to ensure no activity effects were due to the solvent. Each concentration of ligand was applied to four technical replicates, which were averaged and considered a single biological replicate. The baseline fluorescence (F) was calculated as the average fluorescence of the 30 s before odour was added to the plate. Within each well, ΔF was calculated as the difference between the average of the last 10 s of fluorescence and the baseline F. ΔF/F was then calculated as the ΔF divided by the baseline fluorescence (F). […]

Orco [2] = molecular target: T1, Orco; test: cell-based; parameters: species or system HEK293; GCaMP6s calcium fluorescence (ΔF/F) dose-response in HEK cells expressing the odorant receptor
Procedure: as §1

MhOR5 = molecular target: T2, MhOR5 (Machilis hrabei, UniProt Z9G0B3H7M0); test: GCaMP6s calcium flux, HEK293; assay type: cell-based; conditions: agonist, sub-maximal efficacy; 2 mM CaCl2, pH 7.4
T2 construct: Lys2-Pro474; cryo-EM: N-terminal Strep II-sfGFP cleaved with HRV 3C, HEK293S GnTI-; calcium assay: pME18s vector without fluorescent marker, HEK293 with GCaMP6s; homotetramer
T2 sequence (Z9G0B3H7M0 6-478): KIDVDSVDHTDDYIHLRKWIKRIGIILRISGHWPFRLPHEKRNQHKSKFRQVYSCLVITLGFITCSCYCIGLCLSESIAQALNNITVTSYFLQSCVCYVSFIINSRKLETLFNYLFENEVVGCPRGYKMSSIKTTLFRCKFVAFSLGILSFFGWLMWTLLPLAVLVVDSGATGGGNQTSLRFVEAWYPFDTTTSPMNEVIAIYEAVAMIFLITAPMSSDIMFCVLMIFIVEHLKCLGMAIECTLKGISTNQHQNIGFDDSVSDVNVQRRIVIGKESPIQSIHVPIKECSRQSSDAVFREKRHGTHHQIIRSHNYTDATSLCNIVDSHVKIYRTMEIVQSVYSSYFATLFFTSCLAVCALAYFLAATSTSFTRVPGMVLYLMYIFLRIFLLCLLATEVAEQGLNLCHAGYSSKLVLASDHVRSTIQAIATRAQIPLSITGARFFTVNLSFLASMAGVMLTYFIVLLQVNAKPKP

## CCc1ccc(NC(=O)CSc2nnc(-c3cccnc3)n2CC)cc1 [VUAA1]
Orco [1]
  EC50: 55.2 µM

## CC(=O)c1ccccc1 [acetophenone]
Orco [2]
  EC50: > 500 µM

## CCN(CC)C(=O)c1cccc(C)c1 [DEET]
MhOR5
  EC50: MhOR5 was also activated by the insect repellent DEET
